# Reference: US20150352108A1, “AMINO-PYRIMIDINE COMPOUNDS AS INHIBITORS OF TBK1 AND/OR IKK EPSILON” (Alzheimer's Institute of America, priority 2009, published 2015)
# Target: T1, IKKε (Homo sapiens, UniProt Q14164)
# T1 construct: His-tag; made in house; host or cells: Sf9 insect cells
# T1 sequence (Q14164 1-716): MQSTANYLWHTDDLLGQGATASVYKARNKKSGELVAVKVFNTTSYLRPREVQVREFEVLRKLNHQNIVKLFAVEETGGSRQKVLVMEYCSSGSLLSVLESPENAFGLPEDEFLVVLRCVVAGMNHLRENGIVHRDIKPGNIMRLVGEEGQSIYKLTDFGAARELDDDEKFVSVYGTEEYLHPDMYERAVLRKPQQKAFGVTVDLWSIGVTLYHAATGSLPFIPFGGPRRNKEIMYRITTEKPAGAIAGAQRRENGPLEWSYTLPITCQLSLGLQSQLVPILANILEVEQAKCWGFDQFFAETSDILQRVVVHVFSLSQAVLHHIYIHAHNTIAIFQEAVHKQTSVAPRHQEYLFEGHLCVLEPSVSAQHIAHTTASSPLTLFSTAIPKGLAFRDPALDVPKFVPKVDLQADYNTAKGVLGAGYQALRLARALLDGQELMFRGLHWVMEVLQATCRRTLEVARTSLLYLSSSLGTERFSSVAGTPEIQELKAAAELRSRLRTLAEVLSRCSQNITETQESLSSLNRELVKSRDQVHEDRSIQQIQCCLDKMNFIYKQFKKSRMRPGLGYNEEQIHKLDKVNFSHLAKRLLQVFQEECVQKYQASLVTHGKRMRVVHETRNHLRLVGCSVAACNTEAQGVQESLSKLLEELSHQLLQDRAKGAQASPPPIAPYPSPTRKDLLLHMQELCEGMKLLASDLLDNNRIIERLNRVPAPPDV
# Assay: In-vitro IKKε kinase assay ([γ33]ATP filter-plate)
# Assay type: biochemical
# Details: text bins; read-out: IC50 for inhibition of the kinase activity of IKKε
# Outline: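 Phosphorylation of casein or myelin basic protein was counted by P-81 filter capture after 30-45 min reactions stopped with phosphoric acid, with counts normalized to DMSO after background subtraction. ATP was twice Km: 60 μM for TBK1 and 32 μM for IKKε, plus [γ33]ATP. Sf9-expressed His-tag enzymes were used at normal/sensitized levels of 0.1/0.02 μg/ml (TBK1) and 0.1/0.015 μg/ml (IKKε).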
row,Compound,IC50 [nM]
1,"CC(C)C(=O)Nc1ccc(-c2ccnc(Nc3ccc(CN4CCN(CCO)CC4)cc3)n2)cc1C#N [compound 426, N-(2-cyano-4-{2-[(4-{[4-(2-hydroxyethyl)piperazin-1-yl]methyl}phenyl)amino]pyrimidin-4-yl}phenyl)-2-methylpropanamide]",5 to 50
2,"N#Cc1cccc(-c2nc(Nc3ccc(N4CCOCC4)cc3)nc3[nH]cnc23)c1 [compound 562, 3-(2-{[4-(Morpholin-4-yl)phenyl]amino}-3H-purain-6-yl)benzonitrile]",50 to 500
3,"N#Cc1cc(Cl)cc(-c2ccnc(Nc3ccc(N4CCOCC4)cc3)n2)c1 [Example 50, 3-Chloro-5-(2-{[4-(morpholin-4-yl)phenyl]amino}pyrimidin-4-yl)benzonitrile]",5 to 50
4,COc1cc(NC(=O)c2ccccn2)cc(Nc2nccc(-c3ccc(OC)c(C#N)c3)n2)c1 [compound 365],50 to 500
5,"COc1ccc(Nc2nccc(-c3cccc(C#N)c3)n2)cc1 [compound 319, 3-{2-[(4-Methoxyphenyl)amino]pyrimidin-4-yl}benzonitrile]",50 to 500
6,"N#Cc1cc(-c2ccnc(Nc3cccc(Cn4cnnc4)c3)n2)ccc1OC1CCOCC1 [compound 595, 2-(Tetrahydro-2H-pyran-4-yloxy)-5-(2-{[3-(4H-1,2,4-triazol-4-ylmethyl)phenyl]amino}pyrimidin-4-yl)benzonitrile]",< 5
7,COc1cc(Nc2nccc(-c3ccc(OC4CCNCC4)c(C#N)c3)n2)ccc1S(=O)(=O)NCCCN(C)C [compound 398],50 to 500
8,"N#Cc1cc(-c2ccnc(Nc3ccc(N4CCOCC4)cc3)n2)ccc1Cl [Example 102, 2-Chloro-5-(2-{[4-(morpholin-4-yl)phenyl]amino}pyrimidin-4-yl)benzonitrile]",5 to 50
9,"CC(C)C[C@H](O)C(=O)N1CCC(Oc2ccc(-c3ccnc(Nc4ccc(N5CCOCC5)cc4)n3)cc2C#N)CC1 [Example 229, 2-({1-[(2S)-2-hydroxy-4-methylpentanoyl]piperidin-4-yl}oxy)-5-(2-{[4-(morpholin-4-yl)phenyl]amino}pyrimidin-4-yl)benzonitrile]",5 to 50
10,"CC(C)NC(=O)N1CCC(Oc2ccc(-c3ccnc(Nc4ccc(N5CCOCC5)cc4)n3)cc2C#N)CC1 [Example 37, 4-[2-Cyano-4-(2-{[4-(morpholin-4-yl)phenyl]amino}pyrimidin-4-yl)phenoxy]-N-(propan-2-yl)piperidine-1-carboxamide]",50 to 500
11,"COC1CCN(c2cccc(Nc3nccc(-c4ccc(O[C@@H]5CCN(C(=O)CO)C5)c(C#N)c4)n3)c2)C1 (stereo partly drawn) [compound 546, 2-{[(3R)-1-(Hydroxyacetyl)pyrrolidin-3-yl]oxy}-5-(2-{[3-(3-methoxypyrrolidin-1-yl)phenyl]amino}pyrimidin-4-yl)benzonitrile]",< 5
12,"COc1ccc(-c2ccnc(Nc3ccc(NC(=O)NCCCO)cc3)n2)cc1C#N [Example 7, 1-(4-{[4-(3-Cyano-4-methoxyphenyl)pyrimidin-2-yl]amino}phenyl)-3-(3-hydroxypropyl)urea]",50 to 500
13,"C[C@H](O)C(=O)N1CCC(Oc2ccc(-c3ccnc(Nc4ccc(N5CCOCC5)cc4)n3)cc2C#N)C1 (stereo partly drawn) [Example 192, 2-({1-[(2S)-2-hydroxypropanoyl]pyrrolidin-3-yl}oxy)-5-(2-{[4-(morpholin-4-yl)phenyl]amino}pyrimidin-4-yl)benzonitrile]",5 to 50
14,"N#Cc1cc(-c2ccnc(Nc3ccc(N4CCOCC4)cc3)n2)ccc1OC1CCN(C(=O)Cn2ccnc2)CC1 [Example 139, 2-{[1-(1H-imidazol-1-ylacetyl)piperidin-4-yl]oxy}-5-(2-{[4-(morpholin-4-yl)phenyl]amino}pyrimidin-4-yl)benzonitrile]",5 to 50
15,"COc1ccc(Nc2nccc(-c3cccc(C#N)c3)n2)cc1F [Example 66, 3-{2-[(3-Fluoro-4-methoxyphenyl)amino]pyrimidin-4-yl}benzonitrile]",50 to 500
